According to patent publication US6362166B1, “Antipicornaviral compounds and methods for their use and preparation” (Agouron Pharmaceuticals, Inc., priority 1996, dated 2002):
Read-outs that look alike come from different tables or passages of the source.

Assays:
[1] = target: T1, Recombinant Rhinovirus 3C protease (RVP) serotype-14 (Human rhinovirus 14, UniProt P03303); test: Inhibition of Rhinovirus Protease (fluorescence resonance energy transfer assay), serotype 14; format: biochemical, human rhinovirus (HRV); details: RVP serotype-14; for INHIB (percent inhibition): 10 minute preincubation with 50 nM RVP; for kobs/I: progress curves in enzyme start experiments; for Ki: 10 minute preincubation, substrate start, read-out: INHIB (Ki)
T1 construct: Recombinant Rhinovirus 3C proteases from serotypes 14, 16, 2 or 89; made in house
Procedure: Stock solution (50 mM, in DMSO) of various compounds were prepared; dilutions were in the same solvent. […] Assays contained 2% DMSO, 50 mM tris pH 7.6, 1 mM EDTA, a compound at the indicated concentrations, approximately 1 μM substrate, and 50-100 nM protease. […] The kobs/I values were obtained from reactions initiated by addition of enzyme rather than substrate. RVP activity is measured in the fluorescence resonance energy transfer assay. […] In the uncleaved peptide, the EDANS fluorescence was quenched by the proximal DABCYL moeity. When the peptide was cleaved, the quenching was relieved, and activity was measured as an increase in fluorescence signal.
In the above table, all data is RVP serotype-14 unless otherwise noted in parentheses. All strains of human rhinovirus (HRV) were purchased from American Type Culture Collection (ATCC), except for serotype 14, which was produced from the infectious cDNA clone constructed and supplied to us by Dr. Roland Rueckert at the Institute for Molecular Virology, University of Wisconsin, Madison, Wisc. […] The data in the column designated kobs/I was measured from progress curves in enzyme start experiments.

HRV-14 = test: Antirhinoviral HI-HeLa Cell Culture Assay (Cell Protection Assay, XTT dye reduction); format: cell-based, human rhinovirus (HRV) serotype-14; details: HI-HeLa cells infected with HRV-14, m.o.i. 0.13; two days; XTT; read-out: EC50
Procedure: In the Cell Protection Assay, the ability of compounds to protect cells against HRV infection was measured by the XTT dye reduction method. This method is described in Weislow, O. S., R. Kiser, D. L. Fine, J. Bader, R. H. Shoemaker, and M. R. Boyd, J. Natl. Cancer Inst. 1989, 81, 577-586, which is incorporated herein by reference.
(§1) HI-HeLa cells were infected with HRV-14 at a multiplicity of infection (m.o.i.) of 0.13 (virus particles/cell) or mock-infected with medium only. Infected or mock-infected cells were resuspended at 8×10^5 cells per mL and incubated with appropriate concentration of compounds of formulas I and II. Two days later, XTT/PMS was added to test plates and the amount of formazan produced was quantified spectrophotometrically at 450/650 nm. […] The therapeutic index (TI) was calculated by dividing the CC50 by the EC50.
(§2) All strains of human rhinovirus (HRV) for use in this assay were purchased from American Type Culture Collection (ATCC), except for HRV serotype-14, which was produced from the infectious cDNA clone, constructed and supplied to us by Dr. Roland Rueckert at the Institue for Molecular Virology, University of Wisconsin, Madison, Wisc. HRV stocks were propagated, and antiviral assays were perforemd in HI-HeLa cells (ATCC). Cells were grwon in Minimal Essential Medium, available from Life Technologies, with 10% fetal bovine serum.
The compounds were tested against control compounds WIN 51711, WIN 52084, and WIN 54954, all obtained from Sterling-Winthrop Pharmaceuticals, and control compound Pirodavir, obtained from Janssen Pharmaceuticals.

HI-HeLa cells = test: Cytotoxicity in mock-infected HI-HeLa cells (antirhinoviral assay, XTT); format: cell-based
Procedure: as §1, §2

[2] = mock-infected HI-HeLa cells, two days, XTT, read-out: CC50

T1 sequence (P03303 1538-1719): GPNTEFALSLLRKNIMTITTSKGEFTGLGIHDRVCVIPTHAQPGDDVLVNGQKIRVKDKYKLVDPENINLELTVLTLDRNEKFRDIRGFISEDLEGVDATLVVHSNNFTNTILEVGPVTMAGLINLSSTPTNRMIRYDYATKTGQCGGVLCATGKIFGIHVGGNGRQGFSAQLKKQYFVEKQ

| SMILES | INHIB (percent inhibition) ([1]; 10 μM compound) | kobs/I [1] | EC50 (HRV-14) | CC50 (HI-HeLa cells; [2]) | CC50 (HI-HeLa cells) | Ki [1] | INHIB (percent inhibition) [1] |
| --- | --- | --- | --- | --- | --- | --- | --- |
| CCOC(=O)/C=C/[C@H](CCC(N)=O)NC(=O)[C@H](Cc1ccccc1)NS(=O)(=O)c1ccccc1 [Compound 34, Ethyl-3-[N-(Phenylsulfonyl)-L-Phe-L-Gln]-E-Propenoate] | 10(10) percent | 34 M⁻¹ s⁻¹ | 100 µM | > 100 µM |  |  |  |
| CC(C)CC(NC(=O)OCc1ccccc1)C(=O)NC(Cc1ccccc1)C(=O)NC(C=CC(=O)N1CCC(O)C1)CCC(N)=O (stereo not shown) [Compound 39] |  | 1,200 M-1 sec-1 | > 320 µM |  | > 320 µM |  |  |
| COc1ccc(C(=O)/C=C/[C@H](CCC(N)=O)NC(=O)[C@H](Cc2ccccc2)NC(=O)[C@H](CC(C)C)NC(=O)OCc2ccccc2)cc1 [Compound 42] |  | 150,000 M-1 sec-1 | 22.4 µM |  | 100 µM |  |  |
| CCN(CC)c1ccc(C(=O)/C=C/[C@H](CCC(N)=O)NC(=O)[C@H](Cc2ccccc2)NC(=O)[C@H](CC(C)C)NC(=O)OCc2ccccc2)cc1 [Compound 43] |  | 4,500 M-1 sec-1 | 10 µM |  | 18 µM |  |  |
| CC(C)C[C@H](NC(=O)OCc1ccccc1)C(=O)N[C@@H](Cc1ccccc1)C(=O)N[C@H](/C=C/C(=O)c1ccc2c(c1)OCO2)CCC(N)=O [Compound 46] |  | 120,000 M-1 sec-1 | 3.2 µM |  | 45 µM |  |  |
| CC(C)C[C@H](NC(=O)OCc1ccccc1)C(=O)N[C@@H](Cc1ccccc1)C(=O)N[C@H](/C=C/C(=O)c1ccco1)CCC(N)=O [Compound 49] |  | 460,000 M-1 sec-1 | 2.4 µM |  | 19.1 µM |  |  |
| CC(C)C[C@H](NC(=O)OCc1ccccc1)C(=O)N[C@@H](Cc1ccccc1)C(=O)N[C@H](/C=C/C(=O)C(C)(C)C)CCC(N)=O [Compound 52] |  | 15,000 M-1 sec-1 | 1.7 µM |  | 5.6 µM |  |  |
| CCOC(=O)/C=C/[C@H](CCC(N)=O)NC(=O)[C@H](Cc1ccc(O)cc1)NC(=O)[C@H](CC(C)C)NC(=O)OCc1ccccc1 [Compound 53] |  | 11,320 M-1 sec-1 | 5.3 µM |  | > 320 µM |  |  |
| CC(C)C[C@H](NC(=O)OCc1ccccc1)C(=O)N[C@@H](Cc1ccccc1)C(=O)N[C@H](/C=C/C(=O)Nc1ccccc1)CCC(N)=O [Compound 59] |  | 200 M⁻¹ s⁻¹ | > 320 µM | > 320 µM |  | 2 µM |  |
| CC(C)C[C@H](NC(=O)OCc1ccccc1)C(=O)N[C@@H](Cc1ccccc1)C(=O)N[C@H](/C=C/C(=O)N(C)c1ccccc1)CCC(N)=O [Compound 60] |  | 575 M⁻¹ s⁻¹ | 158 µM |  | > 320 µM | 5 µM |  |
| CC(C)C[C@H](NC(=O)OCc1ccccc1)C(=O)N[C@@H](Cc1ccccc1)C(=O)N[C@H](/C=C/C(=O)n1cccc1)CCC(N)=O [Compound 66] |  | 400,000 M-1 sec-1 | 1.4 µM |  | 6.3 µM |  |  |
| CCOC(=O)/C=C/[C@H](CCC(N)=O)NC(=O)[C@H](Cc1ccccc1)NC(=O)[C@H](CC(C)C)NC(=O)c1ccccc1 [Compound 67] |  | 9,600 M-1 sec-1 | 5.2 µM |  | > 320 µM |  |  |
| CCOC(=O)C=CC(CCC(N)=O)NC(=O)C(Cc1ccccc1)NC(=O)C(NC(=O)OCc1ccccc1)c1ccccc1 (stereo not shown) [Compound 71] |  | 20,650 M-1 sec-1 | 14.1 µM |  | > 320 µM |  |  |
| CC(C)C[C@H](NC(=O)OCc1ccccc1)C(=O)N[C@@H](Cc1ccccc1)C(=O)N[C@H](/C=C/C(=O)N1CCCO1)CCC(N)=O [Compound 79] |  | 13,900 M-1 sec-1 | 45 µM | > 320 µM |  |  |  |
| CC(C)C[C@H](NC(=O)OCc1ccccc1)C(=O)N[C@@H](Cc1ccccc1)C(=O)N[C@H](/C=C/C(=O)c1ccc(C#N)cc1)CCC(N)=O [Compound 80] |  | 200,000 M-1 sec-1 | 50 µM | > 320 µM |  |  |  |
| CC(C)C[C@H](NC(=O)OCc1ccccc1)C(=O)N[C@@H](Cc1ccccc1)C(=O)N[C@H](/C=C/C=O)CCC(N)=O [Compound 81] |  | 124,000 M-1 sec-1 | 8 µM | 112 µM |  |  |  |

| SMILES | INHIB (percent inhibition) ([1]; 10 μM compound) | kobs/I [1] | EC50 (HRV-14) | CC50 (HI-HeLa cells; [2]) | CC50 (HI-HeLa cells) | Ki [1] | INHIB (percent inhibition) [1] |
| --- | --- | --- | --- | --- | --- | --- | --- |
| CCOC(=O)/C(C)=C/[C@H](CCC(N)=O)NC(=O)[C@H](Cc1ccccc1)NC(=O)[C@H](CC(C)C)NC(=O)OCc1ccccc1 [Compound 82] |  | 7,300 M-1 sec-1 | 3 µM |  | > 320 µM | 26 µM |  |
| CC(C)C[C@H](NC(=O)OCc1ccccc1)C(=O)N[C@@H](Cc1ccccc1)C(=O)N[C@H](/C=C/C(=O)N1CCCCO1)CCC(N)=O [Compound 84] |  | 18,650 M-1 sec-1 | 16 µM | > 320 µM |  |  |  |
| CC(C)C[C@H](NC(=O)OCc1ccccc1)C(=O)N[C@@H](Cc1ccccc1)C(=O)N[C@H](/C=C/C(=O)N1CCc2cc(Cl)ccc21)CCC(N)=O [Compound 92] |  | 445 M⁻¹ s⁻¹ | 5.6 µM | 56 µM |  |  |  |
| CC(C)C[C@H](NC(=O)OCc1ccccc1)C(=O)N[C@@H](Cc1ccccc1)C(=O)N[C@H](/C=C/C(=O)N1CCc2cccc(S(C)(=O)=O)c21)CCC(N)=O [Compound 95] |  | <1000 M⁻¹ s⁻¹ | > 320 µM | > 320 µM |  |  |  |
| CSc1cccc2c1N(C(=O)/C=C/[C@H](CCC(N)=O)NC(=O)[C@H](Cc1ccccc1)NC(=O)[C@H](CC(C)C)NC(=O)OCc1ccccc1)CC2 [Compound 96] |  | 300 M⁻¹ s⁻¹ | 19.1 µM | 100 µM |  |  |  |
| CC(C)C[C@H](NC(=O)OCc1ccccc1)C(=O)N[C@@H](Cc1ccccc1)C(=O)N[C@H](/C=C/C(=O)N1CCc2ccc(S(C)(=O)=O)cc21)CCC(N)=O [Compound 97] |  | 12,900 M-1 sec-1 | > 320 µM | > 320 µM |  |  |  |
| CCOC(=O)/C=C/[C@H](CCC(N)=O)NC(=O)CNC(=O)[C@H](CC(C)C)NC(=O)OCc1ccccc1 [Compound 99] |  |  | 141 µM |  | > 320 µM |  | 10 (50) percent |
| CCOC(=O)/C=C/[C@H](CCC(N)=O)NC(=O)[C@H](Cc1ccc(OC(C)=O)cc1)NC(=O)[C@H](CC(C)C)NC(=O)OCc1ccccc1 [Compound 100] |  | 1,200 M-1 sec-1 | 11.1 µM | > 320 µM |  |  |  |
| CCOC(=O)/C=C/[C@H](CCC(N)=O)NC(=O)[C@H](Cc1ccccc1)NC(=O)[C@H](C)NC(=O)OCc1ccccc1 [Compound 101] |  | 11,288 M-1 sec-1 | 2 µM | > 320 µM |  |  |  |
| CCOC(=O)/C=C/[C@H](CCC(N)=O)NC(=O)[C@H](Cc1ccc(OP(=O)(O)O)cc1)NC(=O)[C@H](CC(C)C)NC(=O)OCc1ccccc1 [Compound 105] |  | 1,200 M-1 sec-1 | 14 µM | > 320 µM |  |  |  |
| CCOC(=O)/C=C/[C@H](CCC(N)=O)NC(=O)[C@H](CC)NC(=O)[C@H](CC(C)C)NC(=O)OCc1ccccc1 [Compound 108] |  | 4,694 M-1 sec-1 | 6 µM |  | > 320 µM |  |  |
| CCOC(=O)/C=C/[C@H](CCC(N)=O)NC(=O)[C@H](C)NC(=O)[C@H](CC(C)C)NC(=O)OCc1ccccc1 [Compound 109] |  | 1,348 M-1 sec-1 | 20 µM |  | > 320 µM |  |  |
| CCOC(=O)/C=C/[C@H](CCC(N)=O)NC(=O)[C@H](Cc1ccccc1)NC(=O)[C@H](CC(C)C)NC(=O)OC [Compound 110] |  | 9,072 M-1 sec-1 | 1.3 µM |  | > 320 µM |  |  |
| CCOC(=O)/C=C/[C@H](CCC(N)=O)NC(=O)[C@H](Cc1ccccc1)NC(=O)[C@H](CC(C)C)NC(=O)C1CCCC1 [Compound 116] |  | 23,670 M-1 sec-1 | 0.6 µM |  | > 320 µM |  |  |
| CCOC(=O)/C=C/[C@H](CCC(N)=O)NC(=O)[C@H](Cc1ccccc1)NC(=O)[C@H](CC(C)C)NC(=O)C(C)C [Compound 117] |  | 18,760 M-1 sec-1 | 1 µM |  | > 320 µM |  |  |
